Results on 16 compounds are retold here after paper PMC12470260, “Functional Divergence of Two General Odorant-Binding Proteins to Sex Pheromones and Host Plant Volatiles in Adoxophyes orana (Lepidoptera: Tortricidae)” (Insects, 2025).

Values joined by “and” are separate entries in the source; they are usually repeats but may differ in a detail not shown here. Equal values may be shown once.

For one assay, the target named is AoraGOBP2. In words: Fluorescence competitive binding assay (1-NPN probe) with rAoraGOBP2. Also noted: species or system Adoxophyes orana. Conditions: competitive displacement of 1-NPN, 2 μM protein, 20 mM Tris-HCl pH 7.4, mean ± S.E.M.; read-out: Ki (μM) GOBP2. How it is done: (§1) The fluorescent competitive binding assays were conducted using an F-2700 spectrophotofluorometer (Hitachi, Tokyo, Japan) to evaluate the binding affinities of AoraGOBP1 and AoraGOBP2 to sex pheromones, and HPVs. […] With the increase of 1 − NPN concentration, the change in fluorescence intensity decreased and eventually stabilized, and the data were recorded. Binding dissociation constant K1−NPN (Kd) of 1 − NPN to rAoraGOBPs were determined. Then, 2 mL protein solution containing 2 μM rAoraGOBPs was titrated with 1 μM of each ligand to a final concentration of 18 µM. The fluorescence intensity was measured and recorded after a 2 min reaction. The Ki for competitive binding of each ligand to rAoraGOBPs using the formula Ki = [IC50]/(1 + [1 − NPN]/K1−NPN), where IC50 is the ligand concentration corresponding to 50% displacement of 1 − NPN. Each assay was replicated three times biologically. The Kd and Ki are presented as mean ± S.E.M.
For `CCCCCCCCCCCCO` [12:OH], the Ki (commonly the equilibrium dissociation constant of an inhibitor or competing ligand from its target) came out at 1.74 ± 0.03 µM.

Regarding `CCCCOC(=O)c1ccccc1C(=O)OCCCC` [Dibutyl phthalate], the Ki turned out to be 5.33 ± 0.04 µM.

As to `CC(C)=CCC/C(C)=C/CC/C(C)=C/CO` [Farnesol], the Ki worked out at 1.13 ± 0.02 µM.

For the compound `CCCC/C=C\CCCCCCCCOC(C)=O` [Z9-14:Ac, (Z)-9-tetradecenyl acetate], the Ki is 6.46 ± 0.18 µM.

With `CCCC/C=C\CCCCCCCCO` [Z9-14:OH, (Z)-9-tetradecen-1-ol], the Ki turned out to be 1.49 ± 0.01 µM.

Regarding `CCCC/C=C\CCCCCCCCO` [Z11-14:OH, (Z)-9-tetradecen-1-ol], the Ki is 1.21 µM and 1.24 µM.

Take Farnesene: the Ki was 6.96 ± 0.32 µM.

The assay is the same for the next values; noted with them: fluorescence competitive binding.
Consider `CCCC/C=C\CCCCCCCCOC(C)=O` [Z9-14:Ac, (Z)-9-tetradecenyl acetate], for which the “Binding affinity to AoraGOBP2 (in words)” value is “moderate binding affinity”.

Still in this assay, the particulars now being: fluorescent probe titration, 2 μM protein, pH 7.4.
On to `c1ccc(Nc2cccc3ccccc23)cc1` [1 − NPN, reference compound], for which the Kd (in general, a measure of binding affinity in units of concentration) was 1.65 µM. That is a single-digit micromolar value.

The next assay has as its target AoraGOBP1. In words: Fluorescence competitive binding assay (1-NPN probe) with rAoraGOBP1. Also noted: species or system Adoxophyes orana. Conditions: competitive displacement of 1-NPN, 2 μM protein, 20 mM Tris-HCl pH 7.4, mean ± S.E.M.; read-out: Ki (μM) GOBP1. How it is done:
as §1
With `CC(C)=CCCC(C)=CC=O` (mixture of isomers) [Citral], the inhibition constant Ki is 11.7 ± 0.44 µM.

Consider `C=CC(O)CC` (stereo not shown) [1-Penten-3-ol], for which the Ki came to 10.2 ± 0.14 µM.

As to `CC/C=C\CCOC(=O)CC(C)C` [(Z)-3-Hexen-1-yl 3-methylbutanoate], the Ki was determined as 6.21 ± 0.18 µM.

As to `CCCCCCCCCC=O` [Decanal], the Ki amounted to 0.78 ± 0.15 µM.

Regarding `CCCCOC(=O)c1ccccc1C(=O)OCCCC` [Dibutyl phthalate], the inhibitory constant (Ki) is 10.27 ± 0.07 µM.

Take `CCOC(=O)C(C)CC` (stereo not shown) [Ethyl 2-methylbutanoate]: the Ki is 11.78 ± 0.08 µM.

Turning to `CC(C)C=O` [Isobutyraldehyde], the Ki was 11.9 ± 0.41 µM.

For the compound `COC(=O)c1ccccc1O` [Methyl salicylate], the inhibition constant Ki was determined as 4.41 ± 0.2 µM.

`CCCCC/C=C\C=C\C(=O)OCC` [Pear ester]: the Ki was 5.08 ± 0.13 µM.

The assay is the same for the next values; noted with them: fluorescence competitive binding.
Regarding `CCCC/C=C\CCCCCCCCOC(C)=O` [Z9-14:Ac, (Z)-9-tetradecenyl acetate], the “Binding affinity to AoraGOBP1 (in words)” value was “did not”.

For `CCCC/C=C\CCCCCCCCO` [Z9-14:OH, (Z)-9-tetradecen-1-ol], the “Binding affinity to AoraGOBP1 (in words)” value is given as “did not”.

For the compound `CCCC/C=C\CCCCCCCCO` [Z11-14:OH, (Z)-9-tetradecen-1-ol], the “Binding affinity to AoraGOBP1 (in words)” value is reported as “did not”.

The same assay, now with this note: fluorescent probe titration, 2 μM protein, pH 7.4.
In turn, `c1ccc(Nc2cccc3ccccc23)cc1` [1 − NPN, reference compound] registered a dissociation constant Kd of 18.4 µM.
